Test results reported in patent US20220339127A1, “DRUGGABLE TARGET TO TREAT RETINAL DEGENERATION” (The United States of America,as represented by the …, priority 2019, published 2022).
“Also recorded” adds a separate entry of the source.

What was measured:
[1] = test system: AMPK; test: Phospho-AMPK ELISA in iPSC-RPE of L-ORD patients and unaffected siblings; type: cell-based, human; conditions: L-ORD patient iPSC-RPE, 3 mM metformin, 1½-2 weeks
Description: Thus, in FIG. 16b iPSC-RPE were incubated with recombinant CTRP5 globular form (0.2 μg/mL gCTRP5) for 30 min in the presence (+) and absence (−) of serum to evaluate its role in AMPK signaling.
To better elucidate the ADIPOR1-CTRP5 (receptor-ligand) interaction, […] a ligand dose response curve was performed (in serum free media) by exogenously adding increasing concentrations of recombinant full length CTRP5 (FIG. 16c).
AMPK is a sensitive indicator of the cell energy status and is canonically activated by the levels of AMP or ATP (Hardie and Lin, 2017). Therefore, the AMPK activity (in serum free media) of sibling and patient iPSC-RPE under conditions (increased AMP:ATP ratio) known to stimulate AMPK phosphorylation was characterized (FIG. 16d). iPSC-RPE were incubated in serum deprived media for 5 hours (Park et al., 2009) followed by 30 mins exposure to AICAR (an AMP analogue) or BAM15 (a mitochondrial uncoupler to reduce ATP production).
(§1) Metformin treatment consisted of 3 mM metformin added to the apical and basal media for 1½- 2 weeks.

[2] = test system: iPSC-RPE; test: Cell area of POS-fed iPSC-RPE (ZO-1 staining, REShAPE); type: cell-based, human
Description: Accumulating evidence implicates disrupted lipid metabolism as a common pathogenic mechanism in a host of diseases including AMD (Ban et al., 2018; Xu et al., 2018). These metabolic defects are linked to long term health of RPE cells. To determine the consequence of PEDF-R deficiency in RPE cells, L-ORD iPSC-RPE and unaffected siblings were subjected to 7-day photoreceptor outersegment (POS) feeding to exacerbate the high fat-induced epithelial impairment. Concomitantly, it was investigated whether the lipid-lowering effects of metformin, an anti-diabetic drug (Schneider et al., 1990), could reverse RPE dedifferentiation and loss of polarity. Cell size, a key morphological indicator of RPE polarity, was evaluated by staining for ZO-1 (green) to identify cell borders (FIG. 18a) and employing automated image analysis algorithms in REShAPE (a cloud-computing based cell morphometry analyzer) to perform morphometric analysis of RPE cells.
(§2) Patient iPSC-RPE were treated daily beginning with the first day of POS feeding with 3 mM metformin (Fan et al., 2015; Kim et al., 2011).

[3] = test system: iPSC-RPE; test: APOE deposition in POS-fed iPSC-RPE (integrated density); type: cell-based, human; conditions: for integrated density of APOE signal, apical / integrated density of APOE signal, basal: 7-days POS feeding
Description: as §2
White arrow indicates basal increase in APOE deposits reminiscent of APOE-rich drusen deposits in AMD (Johnson et al., 2011). […] Image J was used to draw a rectangular region of interest around the apical and basal APOE-positive staining to quantify the localized mean integrated intensity and the data is summarized in FIG. 18d.

[4] = test system: iPSC-RPE; test: VEGF secretion ELISA under hypoxic conditions; type: cell-based, human; conditions: for VEGF secretion, apical (Ap) / VEGF secretion, basal (Ba): hypoxic conditions (6h)
Description: Hypoxic stress (3% 02, 6h) was employed to determine how this perturbation regulates VEGF secretion in L-ORD patient iPSC-RPE.

[5] = test system: iPSC-RPE; test: VEGF secretion ELISA under normoxia; type: cell-based, human; conditions: L-ORD patients, metformin 3 mM for 1½ to 2 weeks
Description: Polarized secretion of cytokines by the RPE is a hallmark of their mature and differentiated state. Under conditions that promote epithelial to mesenchymal transition (EMT), RPE lose their morphology and their secretion becomes mispolarized. Dedifferentiation of the RPE is a frequently proposed mechanism in retinal degenerations such as AMD. Typically VEGF is primarily secreted basally by the RPE. In L-ORD patients, the polarity of VEGF secretion is lost as assessed by ELISA.

[6] = test system: L-ORD patient iPSC-RPE; test: Expression of EMT-related genes in POS-fed L-ORD patient iPSC-RPE; type: cell-based, human
Description: POS feeding for 7-days also altered the expression profiles of 85 EMT-related genes in L-ORD patient iPSC-RPE (FIG. 18g).

[7] = test system: AMPK signaling pathway; test: Gene expression of AMPK signaling pathway in L-ORD patient RPE; type: cell-based, human; conditions: metformin 3 mM for 1½ to 2 weeks
Description: Treatment with metformin (3 mM) for 1½ to 2 weeks results in further decrease in some genes but an upregulation in others. […] In the RPE, the PEDF-R plays an important role in fatty acid metabolism.

[8] = test system: L-ORD patient RPE; test: Apical beta-hydroxybutyrate (B-hB) secretion by RPE; type: cell-based, human
Description: The inventors have hypothesized that increasing fatty acid oxidation and ketone body formation (B-hB) may lead to decreased lipid accumulation in the sub retinal space.
as §1

[9] = test system: patients with AMD; test: Retrospective cohort study of AMD patients concurrently using metformin; type: in vivo, human; conditions: patients ages 50-59, with metformin (n=16); 56 without (n=157)
Description: To determine whether there is clinical evidence that metformin could be beneficial in the treatment of AMD, a retrospective cohort study of patients presenting to Kaiser Permanante Medical with AMD was performed to test whether concurrent use of metformin by individuals affected diagnosis.
To determine whether there is clinical evidence that metformin could be beneficial in the treatment of AMD a retrospective cohort study was performed of patients presenting to Kaiser Permanante Medical with AMD to test whether concurrent use of metformin by individuals affected diagnosis.

[10] = test system: Stargardt iRPE; test: Ceramide levels in POS fed Stargardt iRPE; type: cell-based, human
[11] = Mass-spectrometry analysis of metformin in eyes and plasma of treated animals; type: in vivo, mouse; conditions: oral dosing, data not shown
[12] = test system: Abca4−/− mice; test: Abca4−/− mouse model, oral metformin, RPE/choroid flat-mount bodipy lipid stain
[13] = test system: iRPE cells; test: Proteotoxic high throughput screen (LOPAC) and follow up screen: survival of A23187 treated iRPE; type: cell-based, human; conditions: for cytoprotective activity in follow up screen: seven-point dose curve, A23187 2.5, 5, 10 μM, two iRPE samples
Description: 10 μM concentration of A23187 was selected for the drug screening, because it provided a bigger margin for cell death rescue. […] Drug treatment along with the stressor, 10 μM A23187 were added on to iRPE cells matured in 384-well plates and cell death was scored 48 hours later by ATP release using the CellTitrGlo assay.
To distinguish false positives from the real signal, a follow up screen on all of the 45 drugs using iRPE derived from two different iPSC lines was performed. The follow up screen was performed at three different A23187 concentrations (2.5, 5, 10 μM) and with seven different concentrations of drugs ranging from 10 nM-1 mM (FIG. 13D-F). […] Overall, the HTS screen provided two drugs for testing in the in vitro AMD model.

[14] = test system: CC-HS treated iRPE cells; test: RNAseq of iRPE co-treated with CC-HS and drugs; type: cell-based, human; conditions: listed as L, 745,870
Description: The key hallmark of AMD cellular phenotypes seen in cadaver eyes and observed in the in vitro model are the sub-RPE lipid and protein rich deposits, increased expression of drusen markers, and the loss of epithelial phenotype and RPE functionality. […] Similar results were obtained by RNAseq of iRPE treated with just CC-HS plus the vehicle or co-treated with CC-HS and the two drugs. Both drugs were able to suppress (4-10 fold) the expression of dedifferentiation markers in CC-HS treated iRPE cells (FIG. 13H).

[15] = test system: ATG5; test: ATG5 immunostaining in CC-HS treated iRPE; type: cell-based, human; conditions: co-treatment with CC-HS
[16] = test system: iRPE cells; test: Nile red staining of lipid deposits in CC-HS treated iRPE; type: cell-based, human; conditions: co-treatment with CC-HS, vs CC-HS and vehicle
[17] = test system: FIBULIN 3; test: FIBULIN 3 expression in CC-HS treated iRPE; type: cell-based, human; conditions: co-treatment with CC-HS, vs CC-HS and vehicle
[18] = test system: iRPE cells; test: Cell area and hexagonality of CC-HS treated iRPE; type: cell-based, human; conditions: co-treatment with CC-HS
[19] = test system: rat RPE; test: Rat model of RPE dedifferentiation (micropulse laser lesion, sub-retinal injection); type: in vivo
Description: To test the in vivo activity of these drugs, a rat model of RPE dedifferentiation was developed. A 0.5 mm area of rat RPE was damaged using a micropulse laser. RPE cells in the lasered area are ablated causing the cells surrounding the laser lesion to undergo dedifferentiation due to the loss of cell-cell contacts. […] Effects of drugs on rat RPE dedifferentiation was tested by injecting either of the two drugs in the sub-retinal space of the rat eye at the time of laser injury.

[20] = test system: iRPE monolayer; test: Transepithelial resistance (TER) of CC-HS treated iRPE monolayer; type: cell-based, human; conditions: co-treatment with CC-HS
Description: To further dissect the role of C5aR1 and C3aR1 signaling in inducing AMD cellular phenotypes in iRPE cells, a depleted sera and receptor blocker strategy was employed.

[21] = test system: iRPE cells; test: Phagocytosis of photoreceptor outer segments by CC-HS treated iRPE; type: cell-based, human; conditions: co-treatment with CC-HS
Description: Lastly, it was checked if the drugs rescued mature RPE phenotype and RPE functionality. TER of samples co-treated with drugs and CC-HS was 2-3× higher (p<10^−15) as compared to samples treated with vehicle+CC-HS was similar to TER values of CI-HS treated cells (FIG. 7G). Similarly, the addition of both drugs partially rescued (up to 2×; p<10^−15) the ability of the RPE cells to phagocytose photoreceptor outer segments, as compared to cells treated with CC-HS and the vehicle (FIG. 7H). […] The in vitro and in vivo data provides sufficient evidence to support the potential use of these drugs to delay AMD disease initiation and slow its progression.

[22] = metformin treated L-ORD patients
[23] = metformin treated unaffected siblings
[24] = L-ORD patient RPE, prior metformin 2 weeks
[25] = untreated or metformin treated unaffected siblings

SMILES: CN(C)C(=N)N=C(N)N [metformin]
- sensitivity of p-AMPK to changes in the AMP:ATP ratio / AICAR [1]: restored sensitivity to AICAR; also recorded: regained sensitivity to AICAR; also recorded: restores the sensitivity
- POS stress-induced enlargement of patient iPSC-RPE ([2]; 3 mM metformin daily from first day of POS feeding): largely prevented the POS stress-induced enlargement
- cell area ([2]; L-ORD patient iPSC-RPE, 3 mM metformin during 7 days POS feeding): 117.92±0.96 um
- cell area ([2]; unaffected siblings, metformin during 7 days POS feeding): 93.14±1.56 um
- apical and basal APOE deposition ([3]; L-ORD patient RPE treated with metformin during POS feeding): ameliorate the accumulation of APOE-containing basal deposits; also recorded: redistribution of the relative proportions of apical and basal APOE deposition
- integrated density of APOE signal, apical [3, 22]: 79.30±37.51
- integrated density of APOE signal, basal [3, 22]: 13.58±4.58
- integrated density of APOE signal, apical [3, 23]: 119.98±20.36
- integrated density of APOE signal, basal [3, 23]: 23.55±6.17
- hypoxia-induced apical VEGF secretion ([4]; 1½ week pretreatment with metformin): alleviated the hypoxia-induced apical VEGF secretion
- VEGF secretion, apical (Ap) [4, 24]: 0.59±0.09
- VEGF secretion, basal (Ba) [4, 24]: 1.8±0.24
- VEGF secretion, apical (Ap) [4, 25]: 0.98±0.16
- VEGF secretion, basal (Ba) [4, 25]: 1.64±0.33
- rescue of mispolarized VEGF secretion ([4]; hypoxic stress (3% O2, 6h), metformin for 24h, data not shown): insufficient to rescue this phenotype
- polarized VEGF secretion [5]: rescue of polarized VEGF secretion
- polarized VEGF secretion ([5]; listed as Metformin): rescues mispolarized secretion of VEGF
- number of EMT genes downregulated ([6]; L-ORD patient iPSC-RPE treated with metformin, <4-fold as printed): 42 genes
- expression of EMT related genes ([6]; metformin during 7-days POS feeding): suppresses the expression of EMT related genes
- PNPLA2 (PEDF-R) expression [7]: significant increase
- increase in apical B-hB secretion ([8]; L-ORD patient RPE, 3 mM metformin 1½-2 weeks): 25%
- beta-hydroxybutyrate apical secretion ([8]; metformin treatment): increased beta-hydroxybutyrate apical secretion
- age of onset of nonexudative age-related macular degeneration [9]: 58.5 years of age
- reduction of ceramide levels vs vehicle ([10]; 3 mM metformin, wild type POS for 6 consecutive days): 3-4 fold
- ceramide accumulation ([10]; POS-Fed Stargardt iRPE treated with metformin): dramatic reduction
- amount of metformin in RPE/choroid, retina, and plasma [11]: comparable amount
- hypoglycemia in treated mice ([12]; oral metformin 400 or 800 mg/day): do not lead to hypoglycemia
- lipid levels / deposits in RPE/choroid flat-mount ([12]; oral metformin 400 or 800 mg/day for three months): drastically reduced lipid levels; also recorded: reduced deposits

SMILES: Clc1ccc(N2CCN(Cc3c[nH]c4ncccc34)CC2)cc1 [L-745,870]
- IC50 ([13]; cell survival of A23187 treated iRPE, read-out: IC50 dose from seven-point dose response curve): 6 µM
- cytoprotective activity in follow up screen [13]: reproducible cell survival; also recorded: linear response the seven-point dose curve and reproducibility between two different iRPE samples
- cytoprotective activity in follow up screen ([13]; listed as L, 745,870): reproducible cytoprotective activity
- gene expression changes induced by CC-HS treatment [14]: reversed gene expression changes induced by CC-HS treatment; also recorded: reversal of the upregulation of NF-KB pathway genes
- reduced expression of autophagy protein, ATG5 [15]: does not lead to
- amount of Nile red positive lipid droplets [16]: reduced
- expression of FIBULIN 3 [17]: reduced
- expression of FIBULIN 3 ([17]; listed as L745,870): four-fold lower
- average cell area [18]: 162.24 um2
- cell area of CC-HS treated iRPE cells [18]: reduced area
- hexagonality of CC-HS treated iRPE cells [18]: improved hexagonality
- hexagonality score ([18]; 10 represents a perfect hexagon): 8.25
- area of RPE cells at the borders of laser lesion in rat eyes [19]: reduced area
- hexagonality of RPE cells at the borders of laser lesion in rat eyes [19]: improved hexagonality
- area of RPE cells around the laser lesion ([19]; sub-retinal injection at the time of laser injury): 439.55 um2
- monolayer TER [20]: increased monolayer TER
- phagocytic ability [21]: increased
